Among the data in ChEMBL document CHEMBL1201862, “PubChem BioAssay data set” (2004) are EC50, AC50 and IC50 values, retold here.

Active and inactive are the calls of the source.

Assay [1] has as its target Peroxisome proliferator-activated receptor gamma/Nuclear receptor coactivator 2 (Homo sapiens, UniProt P37231). Type of assay: functional.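 Further: agonist potency for raising coactivator recruitment to the receptor.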
Assay [2] concerns the target Peroxisome proliferator-activated receptor gamma/Nuclear receptor coactivator 3 (Homo sapiens, UniProt P37231). Type of assay: functional.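 Further: agonist potency for raising coactivator recruitment to the receptor.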
Assay [3] concerns the target Peroxisome proliferator-activated receptor gamma/Nuclear receptor coactivator 1 (Homo sapiens, UniProt P37231). Type of assay: functional.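 Further: agonist potency as compounds enhance coactivator SRC-1 recruitment to PPARgamma.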
A short description of assay [4]: Luminescence Cell-Based Dose Retest to Confirm Inhibitors of Cancer Stem Cells. [Related pubchem assays (depositor defined):AID2717, AID2721]. To be noted: Homo sapiens. Type of assay: functional.
Assay [5] concerns the target Heat shock protein HSP 90-alpha (Homo sapiens, UniProt P07900). Type of assay: functional, organism-based.
The target in a further assay is Beta-galactosidase (Escherichia coli, UniProt Q8VNN2). In words: detection-enzyme interference by beta-gal modulators – biochemical, E. coli enzyme, set 3, artefact control for CCR6 antagonist project, dose response (AID 504712). Type of assay: functional.
Another assay has as its target SUMO-activating enzyme (Homo sapiens, UniProt Q9UBT2). In words: blockers of UBC9-mediated SUMO conjugation – biochemical, AlphaScreen, SUMOylation inhibitor project, confirmation (AID 2018). Type of assay: functional. On the technique in general: Alpha assays give light when donor and acceptor beads are brought close together.
For the next assay, the target named is Cytochrome P450 3A4 (Homo sapiens, UniProt P08684). The settings on record: Potency.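 Further: confirmatory qHTS run detecting inhibitors and substrates of CYP3A4.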
For another assay, the target named is Cytochrome P450 2C9 (Homo sapiens, UniProt P11712). The settings on record: Potency.
The target of assay [6] is T1, Microphthalmia-associated transcription factor (Homo sapiens, UniProt O75030).
T1 sequence (O75030 whole entry): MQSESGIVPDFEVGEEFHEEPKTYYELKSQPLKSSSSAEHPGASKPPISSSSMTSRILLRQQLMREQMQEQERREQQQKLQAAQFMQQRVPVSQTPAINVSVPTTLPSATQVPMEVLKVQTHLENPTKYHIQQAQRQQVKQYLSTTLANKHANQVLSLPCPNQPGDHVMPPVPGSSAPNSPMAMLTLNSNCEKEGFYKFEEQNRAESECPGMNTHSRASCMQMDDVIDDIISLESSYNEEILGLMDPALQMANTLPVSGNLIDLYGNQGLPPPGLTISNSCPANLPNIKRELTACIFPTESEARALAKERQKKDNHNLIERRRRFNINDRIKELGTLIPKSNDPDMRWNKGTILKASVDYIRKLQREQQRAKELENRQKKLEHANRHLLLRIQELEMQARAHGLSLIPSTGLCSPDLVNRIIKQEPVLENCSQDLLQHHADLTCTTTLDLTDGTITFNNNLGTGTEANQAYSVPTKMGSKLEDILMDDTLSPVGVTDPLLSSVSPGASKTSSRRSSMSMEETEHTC
The assay is described as follows: reducers of TRPM1 reporter luminescence, concentration series – cell-based, SK-MEL-5, cherry-picked, set 3, MITF inhibitor project, dose response (AID 493073).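 Further: SK-MEL-5 melanoma cells with luciferase driven by the MITF target TRPM1 promoter.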 Type of assay: functional.

The nature of assay [7]: Counterscreen for AddAB inhibitors: absorbance-based bacterial cell-based high throughput dose response assay for inhibitors of bacterial viability. [Related pubchem assays (depositor defined):AID435030, AID449728, AID449731, AID488942, AID488955, AID488956]. Type of assay: functional. On the technique in general: Counterscreens check selectivity or assay interference.
A further assay deals with T2, Exodeoxyribonuclease V (Escherichia coli (strain K12), UniProt P04993+P07648+P08394).
T2 sequence (P04993 whole entry): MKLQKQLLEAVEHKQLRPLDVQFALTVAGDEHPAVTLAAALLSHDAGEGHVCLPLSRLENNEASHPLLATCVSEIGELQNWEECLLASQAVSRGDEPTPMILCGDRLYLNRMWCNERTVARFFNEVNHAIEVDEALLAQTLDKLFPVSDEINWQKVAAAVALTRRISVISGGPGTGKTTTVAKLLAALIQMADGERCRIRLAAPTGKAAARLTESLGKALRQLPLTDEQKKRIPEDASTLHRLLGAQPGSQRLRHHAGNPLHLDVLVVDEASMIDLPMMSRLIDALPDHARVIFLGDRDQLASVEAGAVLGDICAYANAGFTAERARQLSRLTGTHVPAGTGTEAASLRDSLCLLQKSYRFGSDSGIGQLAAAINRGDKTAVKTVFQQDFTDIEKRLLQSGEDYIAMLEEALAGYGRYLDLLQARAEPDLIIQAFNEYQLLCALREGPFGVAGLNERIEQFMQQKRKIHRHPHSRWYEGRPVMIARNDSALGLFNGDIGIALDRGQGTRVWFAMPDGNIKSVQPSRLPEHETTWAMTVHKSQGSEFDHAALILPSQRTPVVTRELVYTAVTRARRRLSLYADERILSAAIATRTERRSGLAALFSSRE
T2 sequence (P07648 whole entry): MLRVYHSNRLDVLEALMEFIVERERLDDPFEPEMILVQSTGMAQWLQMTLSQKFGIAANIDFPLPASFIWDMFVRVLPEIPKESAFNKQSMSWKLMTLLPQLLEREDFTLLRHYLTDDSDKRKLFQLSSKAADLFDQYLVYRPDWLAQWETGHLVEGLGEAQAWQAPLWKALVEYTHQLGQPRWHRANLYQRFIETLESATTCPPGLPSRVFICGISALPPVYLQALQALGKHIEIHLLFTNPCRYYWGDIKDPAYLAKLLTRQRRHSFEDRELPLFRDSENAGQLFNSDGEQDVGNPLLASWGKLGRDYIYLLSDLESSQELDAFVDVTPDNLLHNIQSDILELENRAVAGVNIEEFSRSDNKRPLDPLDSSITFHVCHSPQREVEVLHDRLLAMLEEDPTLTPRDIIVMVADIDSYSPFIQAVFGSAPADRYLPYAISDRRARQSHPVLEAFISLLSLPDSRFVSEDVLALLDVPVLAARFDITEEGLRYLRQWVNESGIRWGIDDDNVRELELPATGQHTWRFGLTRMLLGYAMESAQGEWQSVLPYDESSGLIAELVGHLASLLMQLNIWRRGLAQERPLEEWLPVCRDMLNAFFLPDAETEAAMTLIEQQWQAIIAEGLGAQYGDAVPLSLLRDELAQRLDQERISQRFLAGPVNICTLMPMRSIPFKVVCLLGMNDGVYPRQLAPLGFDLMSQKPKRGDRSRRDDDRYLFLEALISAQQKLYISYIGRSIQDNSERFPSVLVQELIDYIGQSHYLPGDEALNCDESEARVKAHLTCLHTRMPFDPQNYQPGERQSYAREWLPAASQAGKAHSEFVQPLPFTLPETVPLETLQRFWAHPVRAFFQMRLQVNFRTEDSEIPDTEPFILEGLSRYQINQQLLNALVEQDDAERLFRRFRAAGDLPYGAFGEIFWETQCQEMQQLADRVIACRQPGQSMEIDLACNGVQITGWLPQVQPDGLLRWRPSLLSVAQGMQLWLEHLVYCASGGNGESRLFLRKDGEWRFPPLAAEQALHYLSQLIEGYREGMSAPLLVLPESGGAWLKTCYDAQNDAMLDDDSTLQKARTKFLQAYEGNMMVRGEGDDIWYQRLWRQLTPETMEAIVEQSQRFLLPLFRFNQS
T2 sequence (P08394 whole entry): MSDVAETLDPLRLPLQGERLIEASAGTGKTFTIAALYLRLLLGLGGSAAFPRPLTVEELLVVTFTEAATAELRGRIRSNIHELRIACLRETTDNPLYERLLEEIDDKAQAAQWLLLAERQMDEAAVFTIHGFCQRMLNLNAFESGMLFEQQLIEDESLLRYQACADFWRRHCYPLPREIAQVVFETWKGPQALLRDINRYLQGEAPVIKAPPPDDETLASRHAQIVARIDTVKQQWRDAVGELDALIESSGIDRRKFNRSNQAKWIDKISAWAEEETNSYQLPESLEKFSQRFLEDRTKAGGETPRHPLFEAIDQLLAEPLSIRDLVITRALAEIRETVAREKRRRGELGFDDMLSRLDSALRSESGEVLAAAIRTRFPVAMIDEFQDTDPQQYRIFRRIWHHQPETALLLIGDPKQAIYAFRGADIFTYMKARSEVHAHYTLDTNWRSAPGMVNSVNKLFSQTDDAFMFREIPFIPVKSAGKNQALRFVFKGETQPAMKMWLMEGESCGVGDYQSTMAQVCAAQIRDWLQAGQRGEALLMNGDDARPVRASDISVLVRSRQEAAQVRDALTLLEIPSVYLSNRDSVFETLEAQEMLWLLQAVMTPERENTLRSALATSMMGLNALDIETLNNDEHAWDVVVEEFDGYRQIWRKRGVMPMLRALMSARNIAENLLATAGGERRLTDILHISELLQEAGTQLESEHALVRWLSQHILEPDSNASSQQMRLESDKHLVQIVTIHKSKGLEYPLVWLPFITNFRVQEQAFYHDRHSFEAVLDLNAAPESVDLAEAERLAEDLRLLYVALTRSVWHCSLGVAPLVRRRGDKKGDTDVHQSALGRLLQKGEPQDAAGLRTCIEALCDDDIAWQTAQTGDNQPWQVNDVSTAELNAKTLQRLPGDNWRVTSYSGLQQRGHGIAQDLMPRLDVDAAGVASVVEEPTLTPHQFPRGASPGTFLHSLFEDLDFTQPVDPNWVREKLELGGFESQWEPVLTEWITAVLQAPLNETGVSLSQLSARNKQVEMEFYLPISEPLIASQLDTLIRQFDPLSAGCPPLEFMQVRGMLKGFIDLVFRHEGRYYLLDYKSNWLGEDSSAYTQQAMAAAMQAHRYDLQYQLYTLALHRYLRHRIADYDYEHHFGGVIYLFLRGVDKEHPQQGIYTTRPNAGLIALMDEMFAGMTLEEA
The assay is described as follows: RecBCD inhibition via phage-restricted bacterial growth – absorbance, V66 E. coli, mutant T4 phage, counter-screen for AddAB inhibitor project, dose response (AID 492957). Type of assay: functional, cell-based, Escherichia coli str. K-12 substr. MG1655.

The target of another assay is Nonstructural protein 1 (Influenza A virus, UniProt Q194T2). Type of assay: functional, Influenza A virus (A/California/07/2009(H1N1)).
Assay [8] concerns the target T3, Nucleotide-binding oligomerization domain-containing protein 1 (Homo sapiens, UniProt Q9Y239).
T3 sequence (Q9Y239 whole entry): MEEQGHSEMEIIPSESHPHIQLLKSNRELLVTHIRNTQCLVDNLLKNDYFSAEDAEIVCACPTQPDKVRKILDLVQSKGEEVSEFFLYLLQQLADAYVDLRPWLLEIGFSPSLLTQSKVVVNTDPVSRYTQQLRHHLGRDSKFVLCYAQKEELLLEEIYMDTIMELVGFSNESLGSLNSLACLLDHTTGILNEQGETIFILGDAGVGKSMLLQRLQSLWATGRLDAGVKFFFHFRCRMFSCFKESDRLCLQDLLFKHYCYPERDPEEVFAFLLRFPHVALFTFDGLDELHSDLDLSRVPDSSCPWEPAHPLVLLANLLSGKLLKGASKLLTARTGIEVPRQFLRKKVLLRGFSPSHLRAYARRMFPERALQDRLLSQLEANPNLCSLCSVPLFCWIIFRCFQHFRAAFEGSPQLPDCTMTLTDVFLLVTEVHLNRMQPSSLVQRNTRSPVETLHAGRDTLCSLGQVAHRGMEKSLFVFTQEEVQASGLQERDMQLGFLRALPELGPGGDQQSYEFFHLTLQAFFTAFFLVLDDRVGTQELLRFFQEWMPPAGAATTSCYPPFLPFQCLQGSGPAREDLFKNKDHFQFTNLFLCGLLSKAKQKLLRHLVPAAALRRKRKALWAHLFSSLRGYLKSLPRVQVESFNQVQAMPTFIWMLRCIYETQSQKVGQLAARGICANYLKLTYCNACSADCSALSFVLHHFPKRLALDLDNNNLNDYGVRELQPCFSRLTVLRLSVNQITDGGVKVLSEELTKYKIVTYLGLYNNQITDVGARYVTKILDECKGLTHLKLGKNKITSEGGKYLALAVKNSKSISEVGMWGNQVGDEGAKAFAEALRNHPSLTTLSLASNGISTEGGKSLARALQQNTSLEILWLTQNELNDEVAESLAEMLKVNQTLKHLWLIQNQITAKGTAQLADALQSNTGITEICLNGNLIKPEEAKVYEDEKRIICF
In words: blockers of NOD1 pathway activity – revised, SAR follow-up (AID 2333). Type of assay: functional.

In a further assay the test system is HEK293. In words: cells. To be noted: Homo sapiens.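 Further: cells exposed to compound for 14 hours overnight before viability readout.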
A short description of assay [9]: HEK-293T viability loss after treatment – luminescence, T-cell screen hits, cytotoxicity control for TCR NF-kB inhibitor project, dose response (AID 489026).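 Further: cells exposed to compound about 14 hours before the viability readout.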 Type of assay: functional, cell-based.
In another assay the target is Tumor necrosis factor (Homo sapiens, UniProt P01375). The assay is described as follows: analog potency on TNFa NF-kB signaling – cell-based, revised, SAR follow-up (AID 2337). Type of assay: functional.
A further assay has as its target Cytochrome P450 2D6 (Homo sapiens, UniProt P10635).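 Further: CYP2D6 member of a cytochrome P450 panel assay.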

Peroxisome proliferator-activated receptor gamma/Nuclear receptor coactivator 1, sequence (P37231 whole entry): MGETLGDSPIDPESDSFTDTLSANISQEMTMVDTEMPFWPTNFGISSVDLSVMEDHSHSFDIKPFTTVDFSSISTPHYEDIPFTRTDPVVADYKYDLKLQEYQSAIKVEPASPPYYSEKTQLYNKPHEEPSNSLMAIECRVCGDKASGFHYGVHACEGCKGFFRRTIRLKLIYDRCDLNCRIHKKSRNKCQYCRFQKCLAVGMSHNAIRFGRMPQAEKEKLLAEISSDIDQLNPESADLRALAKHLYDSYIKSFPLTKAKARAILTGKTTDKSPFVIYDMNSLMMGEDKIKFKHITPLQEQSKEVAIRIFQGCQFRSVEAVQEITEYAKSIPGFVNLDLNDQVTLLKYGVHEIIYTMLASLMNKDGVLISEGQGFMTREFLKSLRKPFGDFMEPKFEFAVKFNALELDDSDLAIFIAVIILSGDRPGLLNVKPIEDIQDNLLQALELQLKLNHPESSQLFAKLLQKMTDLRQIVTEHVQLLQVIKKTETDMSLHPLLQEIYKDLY
Peroxisome proliferator-activated receptor gamma/Nuclear receptor coactivator 1, sequence (Q15788 whole entry, further chain): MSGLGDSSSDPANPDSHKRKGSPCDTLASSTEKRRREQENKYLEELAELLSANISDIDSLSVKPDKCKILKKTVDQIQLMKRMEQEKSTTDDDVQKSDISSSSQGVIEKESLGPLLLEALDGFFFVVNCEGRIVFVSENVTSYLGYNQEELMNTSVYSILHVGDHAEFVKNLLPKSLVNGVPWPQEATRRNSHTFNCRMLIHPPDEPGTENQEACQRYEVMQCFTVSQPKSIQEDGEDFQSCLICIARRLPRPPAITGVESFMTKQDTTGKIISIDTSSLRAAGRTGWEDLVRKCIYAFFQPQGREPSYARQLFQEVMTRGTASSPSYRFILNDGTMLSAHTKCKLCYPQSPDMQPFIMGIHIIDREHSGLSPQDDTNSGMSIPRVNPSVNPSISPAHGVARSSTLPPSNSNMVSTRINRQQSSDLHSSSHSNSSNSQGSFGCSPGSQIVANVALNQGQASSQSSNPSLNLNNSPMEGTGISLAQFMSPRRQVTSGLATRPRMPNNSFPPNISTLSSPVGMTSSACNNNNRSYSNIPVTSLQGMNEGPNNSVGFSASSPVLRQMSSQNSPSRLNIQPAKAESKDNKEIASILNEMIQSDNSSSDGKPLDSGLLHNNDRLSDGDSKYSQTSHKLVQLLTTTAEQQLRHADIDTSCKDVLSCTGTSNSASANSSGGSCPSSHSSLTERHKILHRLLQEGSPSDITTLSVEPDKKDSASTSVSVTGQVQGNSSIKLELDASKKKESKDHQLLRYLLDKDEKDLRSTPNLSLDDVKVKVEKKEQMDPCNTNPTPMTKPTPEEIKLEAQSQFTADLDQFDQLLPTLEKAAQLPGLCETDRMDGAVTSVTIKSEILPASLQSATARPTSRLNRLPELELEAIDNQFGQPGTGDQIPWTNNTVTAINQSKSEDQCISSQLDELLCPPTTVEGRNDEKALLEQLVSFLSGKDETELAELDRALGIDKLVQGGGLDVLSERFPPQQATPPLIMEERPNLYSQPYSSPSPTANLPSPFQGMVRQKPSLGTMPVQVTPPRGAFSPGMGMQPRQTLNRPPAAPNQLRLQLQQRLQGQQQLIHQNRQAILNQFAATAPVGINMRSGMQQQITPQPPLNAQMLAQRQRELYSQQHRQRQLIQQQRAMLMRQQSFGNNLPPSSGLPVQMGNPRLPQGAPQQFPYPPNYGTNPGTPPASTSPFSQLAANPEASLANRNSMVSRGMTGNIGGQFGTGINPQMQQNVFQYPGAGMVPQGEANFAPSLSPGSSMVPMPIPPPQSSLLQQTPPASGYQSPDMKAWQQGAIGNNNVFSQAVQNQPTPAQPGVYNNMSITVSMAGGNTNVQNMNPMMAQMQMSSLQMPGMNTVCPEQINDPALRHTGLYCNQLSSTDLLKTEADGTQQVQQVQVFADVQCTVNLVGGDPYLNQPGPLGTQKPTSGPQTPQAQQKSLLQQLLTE
Peroxisome proliferator-activated receptor gamma/Nuclear receptor coactivator 2, sequence (P37231 whole entry): as the sequence (P37231 whole entry) above
Peroxisome proliferator-activated receptor gamma/Nuclear receptor coactivator 2, sequence (Q15596 whole entry, further chain): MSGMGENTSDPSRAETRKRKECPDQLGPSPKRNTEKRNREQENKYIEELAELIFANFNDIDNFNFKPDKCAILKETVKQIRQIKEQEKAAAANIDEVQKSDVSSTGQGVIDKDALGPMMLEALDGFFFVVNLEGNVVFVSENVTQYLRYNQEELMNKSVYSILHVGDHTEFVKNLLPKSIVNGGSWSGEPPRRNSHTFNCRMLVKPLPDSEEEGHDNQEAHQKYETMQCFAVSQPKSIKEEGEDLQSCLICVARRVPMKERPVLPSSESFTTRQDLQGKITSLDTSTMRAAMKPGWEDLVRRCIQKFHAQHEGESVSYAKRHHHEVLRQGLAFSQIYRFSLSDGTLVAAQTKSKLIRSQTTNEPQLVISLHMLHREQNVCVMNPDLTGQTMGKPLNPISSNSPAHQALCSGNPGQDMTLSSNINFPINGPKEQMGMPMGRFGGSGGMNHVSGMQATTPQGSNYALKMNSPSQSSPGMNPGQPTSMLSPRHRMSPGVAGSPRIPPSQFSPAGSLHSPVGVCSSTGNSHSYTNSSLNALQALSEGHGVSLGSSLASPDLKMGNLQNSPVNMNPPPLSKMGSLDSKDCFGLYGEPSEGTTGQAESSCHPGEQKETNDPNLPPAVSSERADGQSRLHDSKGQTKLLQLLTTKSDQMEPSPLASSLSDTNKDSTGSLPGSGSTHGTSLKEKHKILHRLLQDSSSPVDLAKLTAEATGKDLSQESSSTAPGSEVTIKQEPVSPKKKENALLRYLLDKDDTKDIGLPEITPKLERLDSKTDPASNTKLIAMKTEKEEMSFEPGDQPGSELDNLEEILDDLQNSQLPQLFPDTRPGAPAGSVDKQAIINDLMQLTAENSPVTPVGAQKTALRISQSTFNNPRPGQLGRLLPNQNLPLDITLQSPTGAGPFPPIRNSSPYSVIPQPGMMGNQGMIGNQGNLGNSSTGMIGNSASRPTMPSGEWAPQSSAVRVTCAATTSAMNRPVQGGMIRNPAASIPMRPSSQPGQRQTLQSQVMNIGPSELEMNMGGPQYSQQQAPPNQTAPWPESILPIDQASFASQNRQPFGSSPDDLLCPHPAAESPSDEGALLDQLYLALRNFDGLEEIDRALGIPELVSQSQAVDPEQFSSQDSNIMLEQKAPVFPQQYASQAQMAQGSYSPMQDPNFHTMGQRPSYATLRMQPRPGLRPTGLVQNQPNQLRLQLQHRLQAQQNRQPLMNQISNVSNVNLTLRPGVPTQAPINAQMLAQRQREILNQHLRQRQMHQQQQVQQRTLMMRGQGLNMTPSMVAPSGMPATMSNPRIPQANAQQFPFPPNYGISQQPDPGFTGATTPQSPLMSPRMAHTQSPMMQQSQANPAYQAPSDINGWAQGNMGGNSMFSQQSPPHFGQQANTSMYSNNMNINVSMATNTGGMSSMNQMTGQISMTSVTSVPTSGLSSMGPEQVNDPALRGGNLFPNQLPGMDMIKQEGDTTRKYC
Cytochrome P450 2C9, sequence (P11712 whole entry): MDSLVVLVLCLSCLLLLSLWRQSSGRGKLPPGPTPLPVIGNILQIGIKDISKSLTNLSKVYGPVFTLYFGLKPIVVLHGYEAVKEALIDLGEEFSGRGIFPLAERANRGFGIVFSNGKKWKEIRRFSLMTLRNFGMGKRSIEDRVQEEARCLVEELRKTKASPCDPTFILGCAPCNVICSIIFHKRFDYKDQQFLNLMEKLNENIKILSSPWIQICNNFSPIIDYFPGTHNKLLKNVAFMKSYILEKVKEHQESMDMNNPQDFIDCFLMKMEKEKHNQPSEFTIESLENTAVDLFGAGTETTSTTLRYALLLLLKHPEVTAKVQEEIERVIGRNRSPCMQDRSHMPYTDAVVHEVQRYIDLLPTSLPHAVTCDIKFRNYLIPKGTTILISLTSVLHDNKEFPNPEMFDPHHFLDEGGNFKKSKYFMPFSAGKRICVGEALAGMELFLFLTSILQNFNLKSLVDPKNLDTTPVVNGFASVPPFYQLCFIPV
Cytochrome P450 3A4, sequence (P08684 whole entry): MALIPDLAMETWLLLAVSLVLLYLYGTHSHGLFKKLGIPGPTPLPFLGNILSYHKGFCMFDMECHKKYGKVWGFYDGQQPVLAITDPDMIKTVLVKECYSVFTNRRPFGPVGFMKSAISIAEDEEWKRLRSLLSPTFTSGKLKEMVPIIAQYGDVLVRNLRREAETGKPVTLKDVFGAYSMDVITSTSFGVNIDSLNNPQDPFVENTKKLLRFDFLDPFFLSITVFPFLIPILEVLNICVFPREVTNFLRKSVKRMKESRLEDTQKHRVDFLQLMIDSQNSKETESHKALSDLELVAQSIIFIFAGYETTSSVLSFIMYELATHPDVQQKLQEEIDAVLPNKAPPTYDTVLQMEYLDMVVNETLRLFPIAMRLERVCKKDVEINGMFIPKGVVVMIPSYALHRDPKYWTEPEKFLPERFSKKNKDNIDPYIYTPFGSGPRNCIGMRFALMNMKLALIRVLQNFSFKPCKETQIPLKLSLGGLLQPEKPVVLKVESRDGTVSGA

As for `COc1ccc(NC(=O)COC(=O)c2cccc(S(=O)(=O)N(C)C)c2)cc1`, the EC50 in [1], in [2] and in assay [3] was > 79.4 µM (not active) in each case.

Turning to `O=C1C=CC(=O)N1c1ccc(OC(F)F)cc1`, the AC50 (usually the concentration giving half of the maximal activity seen) was 3.12 µM (active) in [4] and 1.65 µM (active) in assay [5]. Also, on Beta-galactosidase, the IC50 – broadly, the concentration that inhibits the measured activity by half – was > 66.6 µM (inactive).

Consider `COc1cccc(NC(=O)Nc2nnc(-c3ccccc3SCc3ccccc3)s2)c1`, for which the IC50 at SUMO-activating enzyme is 56.6 µM (active).

Consider `CCCCCCCC1=CC2=CC(=O)C(C)(OC(C)=O)C(=O)C2=CN1CCc1ccccc1` (configuration not stated), for which the AC50 at Cytochrome P450 3A4 is 3.98 µM (inconclusive); at Cytochrome P450 2C9, 6.31 µM (inconclusive).

As to `CC(C)(C)c1cc(O)ccc1O` [E319], the AC50 at Cytochrome P450 2C9 was 7.94 µM (inconclusive).

`Oc1nncc(N/N=C/c2ccccn2)n1`: the concentration at half-maximal activity (AC50) in [6] is 4.65 µM (active). Besides, the IC50 in [7] was 32.2 µM (inactive); on Exodeoxyribonuclease V, 27.5 µM (inactive); on Nonstructural protein 1, 1.44 µM (active).

As to `O=C(Nc1ccc(F)cc1)c1ccc(CN2CCc3ccccc3C2)cc1`, the IC50 in assay [8] is 3.11 µM (active); in the assay with HEK293, > 20 µM (inactive); in assay [9] it was > 80 µM (inactive); at Tumor necrosis factor it was 2.88 µM (active).

`O=C(CSc1nnc2c3ccccc3c3ccccc3c2n1)Nc1ccccc1`: the values for the EC50 in [1], in assay [2] and in assay [3] were 28.6 µM (not active), 39.1 µM (not active) and 31.7 µM (not active), respectively. Besides, the AC50 at Cytochrome P450 2D6 was 7.94 µM (inconclusive).
